For 100 compounds, cytotoxicity results are on record in ChEMBL document CHEMBL3507680, “University of Dundee, Gates Library screen for HepG2 cell viability”.

This data set is described as follows: Human HepG2 cell viability assay in 384 well format. In kind it is toxicity, cell-based. Also on record: dose 125 nL, time 70.5 hour; cytotoxicity at 70.5 h: concentration not given beside the values. Conditions: HepG2 cells, read-out: Inhibition.
For the compound `Cc1nc(N2CCOCC2)nc2c1CCN(C(=O)C1CC1)CC2`, the cytotoxicity at 70.5 h was -13.2%.

As to `Cn1cc(CN2CC[C@H]3OCC[C@@H](C(=O)NC4CCCC4)[C@@H]3C2)cn1`, the cytotoxicity at 70.5 h was -17.5%.

For the compound `Cc1nc(N2CCOCC2)nc2c1CCN(C(=O)C1CCCCC1)CC2`, the cytotoxicity at 70.5 h was found to be 0.0722%.

In the case of `Cc1nc(CN2C(=O)CC[C@@H]3[C@H]2CCN3C(=O)C2CCCO2)cs1` (stereo not given in full), the cytotoxicity at 70.5 h was -8.01%.

For `Cc1nc(N2CCCC2)nc2c1CCN(C(=O)C(C)C)CC2`, the cytotoxicity at 70.5 h was -15.8%.

For the compound `Cc1nc(N2CCCC2)nc2c1CCN(C(=O)N(C)C)CC2`, the cytotoxicity at 70.5 h is -16.7%.

As for `CC(C)CN1C[C@H]2CCN(C(=O)NC3CCCC3)CC[C@H]2S1(=O)=O`, the cytotoxicity at 70.5 h is -9.06%.

As for `COCCN1CC[C@H]2OCC[C@@H](C(=O)Nc3cccnc3)[C@@H]2C1`, the cytotoxicity at 70.5 h stood at 53%.

Regarding `CN1CC2(CCNCC2)COc2ccccc2S1(=O)=O`, the cytotoxicity at 70.5 h is -2.93%.

With `Cn1cc(CN2CC[C@]3(C[C@H](OCc4ccccn4)CO3)C2)cn1`, the cytotoxicity at 70.5 h was -22.4%.

`CC(C)CNC(=O)[C@H]1C[C@@H]2CN(C(=O)Nc3ccc(F)cc3)C[C@H]1O2`: the cytotoxicity at 70.5 h was -26.4%.

Turning to `CNc1ncc2c(n1)CN(c1cccc(OC)c1)C2=O`, the cytotoxicity at 70.5 h is -13.9%.

Consider `CNc1ncc2c(n1)CN(Cc1ccc(Cl)cc1)C2=O`, for which the cytotoxicity at 70.5 h was -9.81%.

In the case of `CNc1ncc2c(n1)CN(CCc1ccccc1)C2=O`, the cytotoxicity at 70.5 h was -12.7%.

As to `CCNc1ncc2c(n1)CN(c1ccc(OC(F)(F)F)cc1)C2=O`, the cytotoxicity at 70.5 h was -15.6%.

Take `CCNc1ncc2c(n1)CN(c1ccc(Cl)cc1)C2=O`: the cytotoxicity at 70.5 h is -14.1%.

For the compound `Cc1nn(C)c2cnn(Cc3ccc(C(=O)NCC4CC4)o3)c12`, the cytotoxicity at 70.5 h is -10.2%.

Turning to `CCn1nc(C)c2c1cnn2CCNS(=O)(=O)c1ccccc1`, the cytotoxicity at 70.5 h was -6.47%.

As to `CCn1nc(C)c2c1cnn2CCNS(=O)(=O)c1cccs1`, the cytotoxicity at 70.5 h came out at 4.54%.

As to `Cc1cc(NC(=O)CCn2nc(C)c3ccccc32)n(C)n1`, the cytotoxicity at 70.5 h is -1.96%.

`CCn1nc(C)c2ncnc(NCCN3CCOCC3)c21`: the cytotoxicity at 70.5 h is -3.9%.

For the compound `CC(C)NC(=O)c1nnc2ccc(N3CCOCC3)cc2n1`, the cytotoxicity at 70.5 h was -5.91%.

Turning to `CCN1C(=O)C(C)(C)c2cc(NC(=O)c3ccn(CC)n3)ccc21`, the cytotoxicity at 70.5 h is -19.5%.

Turning to `CCn1nc(C)c(C(=O)Nc2ccc3c(c2)C(C)(C)C(=O)N3C)c1C`, the cytotoxicity at 70.5 h was -0.0352%.

In the case of `CSc1cccc(NC(C)C(=O)Nc2nccs2)c1` (stereo not given), the cytotoxicity at 70.5 h is 6.07%.

For the compound `Clc1cccc(Cl)c1CNCCOc1ccccn1`, the cytotoxicity at 70.5 h amounted to 11.6%.

As to `CCn1nc(C)c2nc(C)nc(N(C)Cc3ccco3)c21`, the cytotoxicity at 70.5 h was -21.8%.

With `CCn1nc(C)c2nc(C)nc(NCCCn3cccn3)c21`, the cytotoxicity at 70.5 h is -7.44%.

Regarding `CCCc1nc(NCCCOC)c2c(n1)c(C)nn2CC`, the cytotoxicity at 70.5 h was found to be 18.7%.

Turning to `CCCc1nc(N2CCCCCC2)c2c(n1)c(C)nn2CC`, the cytotoxicity at 70.5 h was -11.6%.

Regarding `CCCc1nc(N2CCSCC2)c2c(n1)c(C)nn2CC`, the cytotoxicity at 70.5 h was -13.1%.

In the case of `Cc1nn(C)c2c(NCCCn3cccn3)nc(C3CC3)nc12`, the cytotoxicity at 70.5 h was -5.95%.

On to `Cc1nn(C)c2c(N3CCSCC3)nc(C3CC3)nc12`, for which the cytotoxicity at 70.5 h was -4.86%.

In the case of `CCn1nc(C)c2nc(C(C)C)nc(NCC(=O)N3CCOCC3)c21`, the cytotoxicity at 70.5 h was determined as 5.24%.

`Cc1nn(C)c2c(N(C)Cc3ccco3)nc(C3CC3)nc12`: the cytotoxicity at 70.5 h is 15.5%.

Consider `CCn1nc(C)c2nc(C(C)C)nc(NCCCn3cccn3)c21`, for which the cytotoxicity at 70.5 h was -4.58%.

Turning to `CCn1nc(C)c2nc(C(C)C)nc(N3CCC(O)CC3)c21`, the cytotoxicity at 70.5 h is -15.2%.

As to `CCn1nc(C)c2nc(C(C)C)nc(N3CCN(C)CC3)c21`, the cytotoxicity at 70.5 h came to 29.8%.

Regarding `CCn1nc(C)c2nc(C(C)C)nc(N3CCCC3)c21`, the cytotoxicity at 70.5 h was found to be 15.3%.

Consider `CCn1nc(C)c2nc(C(C)C)nc(NC)c21`, for which the cytotoxicity at 70.5 h came to 20.9%.

In the case of `NCc1n[nH]c(-c2ccc(F)cc2)n1`, the cytotoxicity at 70.5 h was -0.714%.

For `CC(C)n1cc(S(=O)(=O)N2CCCCCC2)cn1`, the cytotoxicity at 70.5 h was -2.52%.

`COCC(=O)NCCCn1ncc2c(C)cccc21`: the cytotoxicity at 70.5 h is -5.2%.

Regarding `O=C(NCCCn1ccnc1)C1CCC(=O)N1Cc1cccs1` (stereo not given), the cytotoxicity at 70.5 h was -9.7%.

For the compound `CCOCCCNC(=O)c1cc(C)nc(N2CCCCC2)n1`, the cytotoxicity at 70.5 h was -6.17%.

On to `COc1cccc(CNC(=O)c2cc(C)nc(N3CCCC3)n2)c1`, for which the cytotoxicity at 70.5 h came out at 17.7%.

As to `O=C(NCCCO)c1nnsc1-c1ccccc1`, the cytotoxicity at 70.5 h was -0.82%.

On to `CCOCCCNC(=O)c1cc(OC)c2ccoc2c1`, for which the cytotoxicity at 70.5 h was -1.75%.

In the case of `CCOc1cc(C(=O)N2CCCC2)cc2occc12`, the cytotoxicity at 70.5 h is -8.39%.

Turning to `CCn1ccc(NS(=O)(=O)c2cccc(COC)c2)n1`, the cytotoxicity at 70.5 h turned out to be 8.56%.

As for `COCc1cccc(S(=O)(=O)NCc2cnn(C)c2C)c1`, the cytotoxicity at 70.5 h is -9.83%.

With `COCc1cccc(S(=O)(=O)N2CCSCC2)c1`, the cytotoxicity at 70.5 h came to 14%.

Take `CCn1ccc(NS(=O)(=O)c2cccc(CSC)c2)n1`: the cytotoxicity at 70.5 h worked out at 3.12%.

As for `CSCc1cccc(S(=O)(=O)NCCO)c1`, the cytotoxicity at 70.5 h is 0.997%.

Turning to `COCCCNS(=O)(=O)c1cccc(CSC)c1`, the cytotoxicity at 70.5 h is -16.6%.

Take `CCn1ccc(NC(=O)CCc2c(C)noc2C)n1`: the cytotoxicity at 70.5 h is -7.45%.

Turning to `CCn1cc(NC(=O)C2CCC(=O)N2Cc2ccc(C)o2)cn1` (stereo not given), the cytotoxicity at 70.5 h is -2.42%.

For `O=C(O)CSc1nccc(-c2ccc3c(c2)OCO3)n1`, the cytotoxicity at 70.5 h was -7.09%.

In the case of `Cc1nc(N2CCOCC2)ncc1-c1cc(O)nc(N2CCCC2)n1`, the cytotoxicity at 70.5 h is -2.77%.

Consider `Cc1ccccc1CNCc1cc(Cl)ccc1O`, for which the cytotoxicity at 70.5 h is -11.5%.

With `CCc1cc(=O)n(CC(=O)N2CCCCC2)c(-c2cccc(F)c2)n1`, the cytotoxicity at 70.5 h is -9.52%.

`CCN(CC)C(=O)CSc1nc2cc(C)nc-2c(O)n1Cc1ccco1`: the cytotoxicity at 70.5 h is -10.9%.

As to `CC(=O)N1CCN(C(=O)c2[nH]nnc2Nc2ccccc2F)CC1`, the cytotoxicity at 70.5 h is 8.05%.

Turning to `c1cnc(-c2nn3c(CN4CCCCC4)nnc3s2)cn1`, the cytotoxicity at 70.5 h was -6.5%.

Turning to `CCc1ccccc1N1CC(c2nnc(N)s2)CC1=O` (stereo not given), the cytotoxicity at 70.5 h was -13.1%.

With `Cc1cc(C(=O)NCc2c(C)nn(C)c2C)nc(N2CCOCC2)n1`, the cytotoxicity at 70.5 h was -1.14%.

`c1ccc(-c2nn3c(CN4CCOCC4)nnc3s2)nc1`: the cytotoxicity at 70.5 h is -3.21%.

As to `c1cnc(-c2nn3c(CN4CCOCC4)nnc3s2)cn1`, the cytotoxicity at 70.5 h is -10.2%.

With `CCN(CC)Cc1nnc2sc(C(C)Oc3ccccc3)nn12` (stereo not given), the cytotoxicity at 70.5 h was 4.82%.

Regarding `Cc1ncc2c(n1)CCCC2NC(=O)c1ccc(Cn2cccn2)cc1` (stereo not given), the cytotoxicity at 70.5 h is -5.6%.

Regarding `O=C(Cc1ccsc1)N1CCC(c2noc(-c3cccnc3)n2)CC1`, the cytotoxicity at 70.5 h is -2.37%.

As to `CCCN1C[C@H](NC(=O)c2ccccc2F)[C@@H](c2ccc(OC)cc2)C1`, the cytotoxicity at 70.5 h amounted to 0.779%.

As to `NC(=O)C1CCN(C(=O)CCn2c(C(F)(F)F)cc3cccnc32)CC1`, the cytotoxicity at 70.5 h turned out to be 3.01%.

Turning to `O=C(c1ccc(O)nc1)N1Cc2ccccc2OC2(CCOCC2)C1`, the cytotoxicity at 70.5 h came to 0.0352%.

Take `O=C(CCn1c(C(F)(F)F)cc2cccnc21)N1CCC(O)CC1`: the cytotoxicity at 70.5 h was 2.54%.

On to `O=C(c1cncnc1)N1Cc2ccccc2OC2(CCOCC2)C1`, for which the cytotoxicity at 70.5 h stood at 2.98%.

In the case of `Cn1nccc1C(=O)N1Cc2cc(Cl)ccc2OC2(CCOCC2)C1`, the cytotoxicity at 70.5 h worked out at 2.41%.

Consider `CCc1cc(C(=O)N2Cc3ccccc3OC3(CCOCC3)C2)on1`, for which the cytotoxicity at 70.5 h stood at 8.33%.

Take `C[C@H](NC(=O)C1CC1)c1nc2cc(-c3ccc(F)cc3)ncn2n1`: the cytotoxicity at 70.5 h stood at 2.87%.

Consider `O=C(CN1CCCC1)N1CCCC(c2cc(=O)n3c(n2)CCCCC3)C1` (stereo not given), for which the cytotoxicity at 70.5 h was determined as 2.75%.

`Cc1cc2c(=O)n3c(nc2s1)CCN(Cc1c[nH]cn1)CC3`: the cytotoxicity at 70.5 h worked out at 1%.

For the compound `O=C1CC[C@H]2[C@H](CCN2C(=O)C2CCOC2)N1Cc1ccncc1` (stereo not given in full), the cytotoxicity at 70.5 h is -20.6%.

As for `CCC1=N[C@@]2(CC[C@@H]3CN(CC4CC4)C[C@@H]32)C(=O)N1CC`, the cytotoxicity at 70.5 h is -14%.

On to `Cn1cc(N2CC3(CCN(Cc4ccoc4)CC3)OCC2=O)cn1`, for which the cytotoxicity at 70.5 h was -1.7%.

With `COC[C@@H]1CCC[C@]12CN(Cc1ccco1)CCO2`, the cytotoxicity at 70.5 h was -1.04%.

For `CC1=N[C@@]2(CC[C@@H]3CN(CC(=O)N(C)C)C[C@@H]32)C(=O)N1CC1CC1`, the cytotoxicity at 70.5 h is -2.19%.

Turning to `O=C1CC[C@H]2[C@H](CCN2C(=O)C2CCCO2)N1Cc1cccnc1` (stereo not given in full), the cytotoxicity at 70.5 h was -6.99%.

As for `CN(C)CC(=O)N1CCc2sc(C(=O)NCC3CC3)cc21`, the cytotoxicity at 70.5 h is -12.2%.

Turning to `CCCNC(=O)c1cc2c(s1)CCN2C(=O)CN(C)C`, the cytotoxicity at 70.5 h was -14.4%.

For `COC[C@@H]1CCC[C@@]12CN(Cc1ccc(C)s1)CCO2`, the cytotoxicity at 70.5 h came out at 48.9%.

Consider `Cc1ncnc2c1CCN(C(=O)Cc1ccccn1)CC2`, for which the cytotoxicity at 70.5 h is -12.9%.

For `O[C@@H]1CCN(CC2CC2)[C@H]1Cc1ccccc1`, the cytotoxicity at 70.5 h is -23%.

With `CCc1ncnc2c1CCN(C(=O)c1ccccn1)CC2`, the cytotoxicity at 70.5 h was -24.1%.

As to `O=C(c1ccoc1)N1CCOCC2(CCN(C3CCOCC3)C2)C1` (stereo not given), the cytotoxicity at 70.5 h is -2.14%.

On to `COCCN1CC[C@@H](OC)[C@@H]1Cc1ccccc1`, for which the cytotoxicity at 70.5 h worked out at 15.6%.

Consider `c1cc(CN2CCC3(CC2)COC(COCC2CC2)C3)ccn1` (stereo not given), for which the cytotoxicity at 70.5 h is -16.7%.

For `CCc1ccc(CN2CCC3(CC2)CN(c2cnn(C)c2)C(=O)CO3)o1`, the cytotoxicity at 70.5 h was -8.17%.

Regarding `O=C(Nc1cccnc1)[C@@H]1CCO[C@@H]2CCN(Cc3cccnc3)C[C@@H]21`, the cytotoxicity at 70.5 h was -22.1%.

For the compound `CO[C@@H]1CCN(Cc2ccccn2)[C@@H]2CN(Cc3ccco3)C[C@@H]21`, the cytotoxicity at 70.5 h is 32.3%.

Consider `COc1cc2c(cc1CN1CCn3c(CO)nnc3C1)CCC2`, for which the cytotoxicity at 70.5 h is 8.8%.
